In patent US8148387B2, “AKT and P70 S6 kinase inhibitors” (Eli Lilly and Company, priority 2008, dated 2012):
Like-named read-outs stand apart in the source and are kept apart here.

Columns and labels:
pAKT S473 = experiment: p70 S6K/AKT In Vivo Target Inhibition, U87MG xenograft, pAKT; design: species or system athymic nude mice; details: Mus musculus, U-87 MG, IV Dose 12.5 mpk, U87MG tumors
Protocol: (§1) U87MG human glioblastoma cells (5×106) are subcutaneously implanted into the flank of athymic nude mice in 0.2 mL of matrigel. Two weeks post-implantation, mice are dosed orally or parenterally according to a time course, single dose/single time point, or dose response protocol for the determination of TMED50 (threshold minimum effective dose). Tumors are flash frozen at harvest and blood is collected for the determination of parent compound plasma exposure and the calculation of TMEC50 (threshold minimum effective concentration) in the case of dose response studies. Tumors or tissues are pulverized in liquid N2 and lysed in 400 μL of XY Lysis Buffer (10 μg/mL Leupeptin, 10 μg/mL Trypsin-Chymotrypsin Inhibitor, 10 μg/mL Tosyl phenyl-alanyl chloromethyl ketone, 10 μg/mL Aprotinin, 60 mM Beta-Glycerol Phosphate, 1% Triton X100, 25 mM Tris pH 7.5, 2.5 mM Pyrophosphate, 150 mM NaCl, 2 mM p-tosyl-L-arginine methyl ester, 15 mM para-nitrophenyl phosphate, 5 mM Benzamidine, 1 mM Na Vanadate, 10 mM NaF, 50 μg/mL phenyl-methane sulfonyl fluoride, 1 mM 1,4-Dithiothreitol (DTT), 15 mM EDTA pH 8.0, 5 mM EGTA pH 8.0, 1 μM Microcystin, 1 μM Okadaic Acid, and 1 Roche Complete protease inhibitor mini-tablet per 10 mL) using Lysing Matrix D tubes (MP Biomedicals, Solon, Ohio, cat#6913-500) and a BIO101 Thermo Savant Fast Prep FP12. Lysates are aliquoted and either assayed immediately or stored at −80° C. for later testing. In Vivo Target Inhibition of p70 S6K and AKT is measured utilizing Meso Scale Discovery (Gaithersburg, Md.) ELISA technology to assess effects on phosphorylation of the serine 240/244 site of the downstream effector S6RP. Phosphorylation of p70 S6K(T389), AKT(5473) and GSK3β(S9) is also assessed using this technology in a multiplex format. In summary, 20 μg of lysate is added to carbon electrode containing 96-well plates pre-spotted with the appropriate capture antibodies. The protein of interest is probed using a ruthenium labeled detection antibody. Upon the passage of current over the electrode in the presence of read buffer containing the co-reactant TPA, electro-chemiluminescence results in the generation of light which is quantified and recorded using the MSD Sector 6000 instrument. For each study, percent inhibitions are calculated relative to the vehicle control group and ANOVA analysis is performed using the JMP software package for the determination of statistical significance.

[1] = tested on: phosphorylated GSK3β serine 9 (pGSK3β); experiment: AlphaScreen SureFire detection of pGSK3β in U87MG cells; format: cell-based; details: Homo sapiens, U-87 MG, 1 hour
Protocol: (§2) The effect of compounds on the formation of endogenous phosphorylated S6 ribosomal protein serine 240/244 (pS6) and phosphorylated GSK3β serine 9 (pGSK3β) are measured using the AlphaScreen SureFire® for either pS6 (TGR Biosciences, TGRS6P2S10K) or pGSK3β(TGRGBS10K). This is a homogeneous assay format using immuno-sandwich capture of the phosphorylated analyte followed by detection using antibody-coated Alphascreen beads to generate an amplified signal.
(§3) U87MG cells are maintained in U87MG growth medium consisting of DMEM supplemented with 10% Fetal bovine serum (FBS), 1% Nonessential amino acids and 1% sodium pyruvate. For the assay, cells are harvested by standard procedures and then counted using Vi-Cell. Cells (50,000/well) are plated in 100 μL of U87MG growth medium into Costar #3596 96 well plates. […]
(§4) On the day of the assay, cells are treated with 20 μL/well compound diluted in media containing 6% DMSO. […] The plate is sealed with foil, incubated at RT for 4 hours with gentle shaking and then read on Perkin Elmer EnVision equipped with a TurboModule using standard AlphaScreen® settings (Ex680nm and Em520-620nm). The percent inhibition determined from controls on each plate and ten-point compound concentration data are then fit to a four-parameter logistic equation using ACTIVITYBASE 4.0 (Assay Guidance Manual Version 5.0, 2008, Eli Lilly and Company and NIH Chemical Genomics Center).

[2] = tested on: phosphorylated S6 ribosomal protein serine 240/244 (pS6); experiment: AlphaScreen SureFire detection of pS6 in U87MG cells; format: cell-based; details: Homo sapiens, U-87 MG, 1 hour
Protocol: as §2, §3, §4

[3] = tested on: Phosphorylation of GSK3β(S9); experiment: p70 S6K/AKT In Vivo Target Inhibition, U87MG xenograft, pGSK3β; design: species or system athymic nude mice; details: Mus musculus, U-87 MG, IV Dose 12.5 mpk, U87MG tumors, read-out: p(S9)GSK 3β - % inhibition
Protocol: as §1

[4] = tested on: phosphorylation of the serine 240/244 site of S6RP; experiment: p70 S6K/AKT In Vivo Target Inhibition, U87MG xenograft, pS6; design: species or system athymic nude mice; details: Mus musculus, U-87 MG, IV Dose 12.5 mpk, U87MG tumors, read-out: p(S240) S6 - % inhibition
Protocol: as §1

CN(C)CCn1cc(-c2ccc(F)c(C(F)(F)F)c2)nc1C1CCN(c2ncnc3c2C(C)(C)C(=O)N3)CC1 [Example 31]
inhibition at 12.5 mg/kg (pAKT S473; 1 hr post IV dose): 4% | inhibition at 12.5 mg/kg (pAKT S473; 2 hr post IV dose): -22.3% | inhibition at 12.5 mg/kg (pAKT S473; 4 hr post IV dose): -19.2% | inhibition at 12.5 mg/kg (pAKT S473; 6 hr post IV dose): -26.3% | inhibition at 12.5 mg/kg (pAKT S473; 8 hr post IV dose): -9.4% | inhibition at 12.5 mg/kg (pAKT S473; 24 hr post IV dose): 22.6% | IC50 [1]: 0.331 µM | IC50 [2]: 0.065 µM | inhibition at 12.5 mg/kg ([3]; 1 hr post IV dose): 48.4% | inhibition at 12.5 mg/kg ([3]; 2 hr post IV dose): 12.6% | inhibition at 12.5 mg/kg ([3]; 4 hr post IV dose): 20.5% | inhibition at 12.5 mg/kg ([3]; 6 hr post IV dose): 51.7% | inhibition at 12.5 mg/kg ([3]; 8 hr post IV dose): 20.1% | inhibition at 12.5 mg/kg ([3]; 24 hr post IV dose): 6% | inhibition at 12.5 mg/kg ([4]; 1 hr post IV dose): 79.2% | inhibition at 12.5 mg/kg ([4]; 2 hr post IV dose): 87.6% | inhibition at 12.5 mg/kg ([4]; 4 hr post IV dose): 94.9% | inhibition at 12.5 mg/kg ([4]; 6 hr post IV dose): 91.7% | inhibition at 12.5 mg/kg ([4]; 8 hr post IV dose): 96.4% | inhibition at 12.5 mg/kg ([4]; 24 hr post IV dose): 45%
